# Measured values from patent US9120795B2, “Crystalline form of a β-lactamase inhibitor” (Cubist Pharmaceuticals, Inc., priority 2013, dated 2015).
# How the values were obtained:
# [1] = system: Panel of Isogenic and Clinical Strains Expressing β-Lactamases; assay: Standard BLI potentiation MIC assay, whole panel; type: cell-based
# Method: The experimental protocol was performed according to Clinical and Laboratory Standards Institute (CLSI) guidelines with modifications as described below (CLSI guidelines can be derived from the CLSI document M07-A9 published in January 2012: “Methods for Dilution Antimicrobial Susceptibility Tests for Bacteria That Grow Aerobically; Approved Standard-Ninth Edition”).
# To prepare for MIC testing, frozen glycerol stocks of clinical isolates (Klebsiella pneumoniae, Eschericia coli, Enterobacter spp, Citrobacter spp, or Pseudomonas aeruginosa) were used to streak for isolated colonies on rich, non-selective, tryptic soy agar containing 5% sheep's blood (TSAB). Frozen glycerol stocks of laboratory engineered, isogenic E. coli strains, which contain cloned β-lactamase expressing plasmids were used to streak for isolated colonies on rich, selective LB agar supplemented with 25 μg/mL tetracycline to maintain the plasmid. All strains were incubated at 37° C. for 18-24 hrs. […]
# (§1) Plates were incubated for 18-20 hours at 37° C. with aeration (200 rpm). Following incubation, growth was confirmed visually placing plates over a viewing apparatus (stand with a mirror underneath) and then OD600 was measured using a SpectraMax 340PC384 plate reader (Molecular Devices, Sunnyvale, Calif.). Growth was defined as turbidity that could be detected with the naked eye or achieving minimum OD600 of 0.1. […]
# Pae clinical, KPC-2 = assay: Synergy MIC (sMIC) assay; type: cell-based, Pseudomonas aeruginosa; details: KPC-2, clinical Pae; CXA-101 at 4 μg/mL
# Method: (§2) The synergy MIC (sMIC) assay determines the concentration of the BLI required to potentiate the activity of a fixed concentration of a β-lactam antibiotic against β-lactamase producing bacterial strains. The experimental protocol was performed according to Clinical and Laboratory Standards Institute (CLSI) guidelines with modifications as described below (CLSI guidelines can be derived from the CLSI document M07-A9 published in January 2012: “Methods for Dilution Antimicrobial Susceptibility Tests for Bacteria That Grow Aerobically; Approved Standard-Ninth Edition”). […]
# as §1, with “0.1. sMIC values were defined as the lowest concentration producing no visible turbidity.” for “0.1.”
# [2] = system: Eco isogenic, β-Lactamase none; assay: Synergy MIC (sMIC) assay; type: cell-based, E. coli; details: β-Lactam none
# Method: as §2
# as §1, with “0.1. sMIC values were defined as the lowest concentration producing no visible turbidity.” for “0.1.”
compound,measurement,setting,value
"O=C1N2C[C@@H](CC[C@H]2c2nnco2)N1OS(=O)(=O)[O-].[Na+] [Hydrate 1, sodium (2S,5R)-2-(1,3,4-oxadiazol-2-yl)-7-oxo-1,6-diazabicyclo[3.2.1]octan-6-yl sulfate]",MIC50,[1],1 to 2 µg/mL
same,MIC90,[1],1 to 2 µg/mL
same,sMIC,"Pae clinical, KPC-2",C (C = 4-8 μg/mL)
same,sMIC,[2],F (F = ≧128 μg/mL)
